From ChEMBL document CHEMBL5543113, “Amphiphilic α-Peptoid-deoxynojirimycin Conjugate-based Multivalent Glycosidase Inhibitor for Hypoglycemic Effect and Fluorescence Imaging” (J Med Chem, 2024)
Active and inactive are the calls of the source. No cut-off for these calls is given here.

Key:
[1] = system: Mus musculus; assay: Hypoglycemic activity in KKAy diabetic mouse model assessed as blood glucose level at 1.6 mg/kg, po co-administered with 1 g/kg maltose and measured after 15 mins by glucometer (reference value: 453 +/- 38.6 mg/dl); assay type: functional; conditions: 0.25 h
[2] = system: Mus musculus; assay: Hypoglycemic activity in KKAy diabetic mouse model assessed as decrease in PBG level at 1.6 mg/kg, po co-administered with 1 g/kg maltose measured at 60 to 120 mins by glucometer; assay type: functional, organism-based; conditions: time 60-120 min
[3] = system: Mus musculus; assay: Hypoglycemic activity in KKAy diabetic mouse model assessed as decrease in PBG level at 1.6 mg/kg, po co-administered with 1 g/kg maltose measured after 30 mins by glucometer relative to control; assay type: functional; design: scale not given: the % may be the effect or the level left; conditions: 0.5 h
[4] = Inhibition of C57BL/6J mouse Alpha-glucosidase incubated for 10 mins by Lineweaver-Burk plot analysis
[5] = system: Mus musculus; assay: Hypoglycemic activity in KKAy diabetic mouse model assessed as decrease in PBG level at 1.6 mg/kg, po co-administered with 1 g/kg maltose measured after 15 mins by glucometer relative to control; assay type: functional; design: scale not given: the % may be the effect or the level left; conditions: 0.25 h
[6] = system: Mus musculus; assay: Hypoglycemic activity in KKAy diabetic mouse model assessed as blood glucose level at 1.6 mg/kg, po co-administered with 1 g/kg maltose and measured after 30 mins by glucometer (reference value: 491.4 +/- 22.5 mg/dl); assay type: functional; conditions: 0.5 h
[7] = Inhibition of rice Alpha-glucosidase incubated for 10 mins by Lineweaver-Burk plot analysis; design: species or system Oryza sativa
[8] = system: Mus musculus; assay: Hypoglycemic activity in KKAy diabetic mouse model assessed as blood glucose level at 1.6 mg/kg, po co-administered with 1 g/kg maltose and measured after 120 mins by glucometer (reference value: 278.4 +/- 14.9 mg/dl); assay type: functional; conditions: 2 h
[9] = Inhibition of Aspergillus niger Alpha-glucosidase incubated for 10 mins by Lineweaver-Burk plot analysis
[10] = target: Alpha-glucosidase (Saccharomyces cerevisiae S288c) (UniProt P53341+P38158+P07265); assay: Inhibition of Saccharomyces cerevisiae Alpha-glucosidase at 1 mM incubated for 10 mins by absorbance based microplate spectrophotometric analysis; assay type: protein assay
[11] = system: Mus musculus; assay: Hypoglycemic activity in KKAy diabetic mouse model assessed as blood glucose level at 1.6 mg/kg, po co-administered with 1 g/kg maltose and measured after 60 mins by glucometer (reference value: 498.6 +/- 31.6 mg/dl); assay type: functional; conditions: 1 h
[12] = Self assembly property of the compound in water assessed as mean diameter at 1 x 10^-4 M by dynamic light scattering spectrometric analysis; assay type: physicochemical; conditions: buffer, 100 µM; dose 1 10^-4M
[13] = Self assembly property of compound in citric acid-phosphate buffer at pH 3 to 7 at 1 x 10^-4M assessed as diameter by dynamic light scattering spectrometric analysis; assay type: physicochemical; conditions: pH 3, 100 µM, dose 1 10^-4M
[14] = Self assembly property of the compound in water assessed as diameter at 1 x 10^-4 M by transmission electron microscopic analysis; assay type: physicochemical; conditions: buffer, 100 µM; dose 1 10^-4M
[15] = Self assembly property of compound in citric acid-phosphate buffer at pH 2 at 1 x 10^-4 M assessed as diameter by dynamic light scattering spectrometric analysis; assay type: physicochemical; conditions: pH 2, 100 µM, dose 1 10^-4M
[16] = system: Mus musculus; assay: Hypoglycemic activity in KKAy diabetic mouse model assessed as decrease in PBG level at 1.6 mg/kg, po co-administered with maltose and measured after 30 mins by glucometer relative to control; assay type: functional; design: scale not given: the % may be the effect or the level left; conditions: 0.5 h
[17] = system: Mus musculus; assay: Hypoglycemic activity in C57BL/6J mouse assessed as blood glucose level at 1.6 mg/kg, po co-administered with maltose and measured after 15 mins by glucometer (380.8 +/- 20.6 mg/dL); assay type: functional; conditions: 0.25 h
[18] = system: Mus musculus; assay: Hypoglycemic activity in C57BL/6J mouse assessed as reduction in PBG level measured per DNJ unit at 1.6 mg/kg, po co-administered with maltose and measured at 15 to 30 mins by glucometer relative to control; assay type: functional; design: scale not given: the % may be the effect or the level left; conditions: time 15-30 min
[19] = system: Mus musculus; assay: Hypoglycemic activity in KKAy diabetic mouse model assessed as blood glucose level at 1.6 mg/kg, po co-administered with maltose and measured after 15 mins by glucometer (reference value: 582.6 +/- 22.9 mg/dl); assay type: functional; conditions: 0.25 h
[20] = system: Mus musculus; assay: Hypoglycemic activity in C57BL/6J mouse assessed as blood glucose level at 0.4 mg/kg, po co-administered with maltose and measured after 30 mins by glucometer (380.8 +/- 20.6 mg/dL); assay type: functional; conditions: 0.5 h
[21] = system: Mus musculus; assay: Hypoglycemic activity in C57BL/6J mouse assessed as decrease in PBG level at 1.6 mg/kg, po co-administered with maltose and measured after 15 mins by glucometer relative to control; assay type: functional; design: scale not given: the % may be the effect or the level left; conditions: 0.25 h
[22] = system: Mus musculus; assay: Hypoglycemic activity in C57BL/6J mouse assessed as decrease in PBG level at 0.4 mg/kg, po co-administered with maltose and measured after 30 mins by glucometer relative to control; assay type: functional; design: scale not given: the % may be the effect or the level left; conditions: 0.5 h
[23] = system: Mus musculus; assay: Hypoglycemic activity in KKAy diabetic mouse model assessed as decrease in PBG level at 1.6 mg/kg, po co-administered with maltose and measured after 120 mins by glucometer relative to control; assay type: functional; design: scale not given: the % may be the effect or the level left; conditions: 2 h
[24] = system: Mus musculus; assay: Hypoglycemic activity in C57BL/6J mouse assessed as molar reduction in PBG level at 1.6 mg/kg, po co-administered with maltose and measured after 30 mins by glucometer relative to control; assay type: functional; design: scale not given: the % may be the effect or the level left; conditions: 0.5 h
[25] = system: Mus musculus; assay: Hypoglycemic activity in C57BL/6J mouse assessed as blood glucose level at 0.8 mg/kg, po co-administered with maltose and measured after 15 mins by glucometer (380.8 +/- 20.6 mg/dl); assay type: functional; conditions: 0.25 h
[26] = system: Mus musculus; assay: Hypoglycemic activity in C57BL/6J mouse assessed as reduction in PBG level measured per DNJ unit at 0.4 mg/kg, po co-administered with maltose and measured at 15 to 30 mins by glucometer relative to control; assay type: functional; design: scale not given: the % may be the effect or the level left; conditions: time 15-30 min
[27] = system: Mus musculus; assay: Hypoglycemic activity in C57BL/6J mouse assessed as decrease in PBG level at 0.8 mg/kg, po co-administered with maltose and measured after 15 mins by glucometer relative to control; assay type: functional; design: scale not given: the % may be the effect or the level left; conditions: 0.25 h
[28] = system: Mus musculus; assay: Hypoglycemic activity in KKAy diabetic mouse model assessed as blood glucose level at 1.6 mg/kg, po co-administered with maltose and measured after 120 mins by glucometer (reference value: 582.6 +/- 22.9 mg/dl); assay type: functional; conditions: 2 h
[29] = system: Mus musculus; assay: Hypoglycemic activity in C57BL/6J mouse assessed as blood glucose level at 1.6 mg/kg, po co-administered with maltose and measured after 30 mins by glucometer (380.8 +/- 20.6 mg/dL); assay type: functional; conditions: 0.5 h
[30] = system: Mus musculus; assay: Hypoglycemic activity in C57BL/6J mouse assessed as decrease in PBG level at 1.6 mg/kg, po co-administered with maltose and measured after 30 mins by glucometer relative to control; assay type: functional; design: scale not given: the % may be the effect or the level left; conditions: 0.5 h
[31] = system: Mus musculus; assay: Hypoglycemic activity in C57BL/6J mouse assessed as reduction in PBG level measured per DNJ unit at 0.8 mg/kg, po co-administered with maltose and measured at 15 to 30 mins by glucometer relative to control; assay type: functional; design: scale not given: the % may be the effect or the level left; conditions: time 15-30 min
[32] = system: Mus musculus; assay: Hypoglycemic activity in KKAy diabetic mouse model assessed as blood glucose level at 1.6 mg/kg, po co-administered with maltose and measured after 60 mins by glucometer (reference value: 582.6 +/- 22.9 mg/dl); assay type: functional; conditions: 1 h
[33] = system: Mus musculus; assay: Hypoglycemic activity in KKAy diabetic mouse model assessed as blood glucose level at 1.6 mg/kg, po co-administered with maltose and measured after 30 mins by glucometer (reference value: 582.6 +/- 22.9 mg/dl); assay type: functional; conditions: 0.5 h
[34] = system: Mus musculus; assay: Hypoglycemic activity in C57BL/6J mouse assessed as decrease in PBG level at 0.4 mg/kg, po co-administered with maltose and measured after 15 mins by glucometer relative to control; assay type: functional; design: scale not given: the % may be the effect or the level left; conditions: 0.25 h
[35] = system: Mus musculus; assay: Hypoglycemic activity in C57BL/6J mouse assessed as blood glucose level at 0.8 mg/kg, po co-administered with maltose and measured after 30 mins by glucometer (380.8 +/- 20.6 mg/dL); assay type: functional; conditions: 0.5 h
[36] = system: Mus musculus; assay: Hypoglycemic activity in KKAy diabetic mouse model assessed as decrease in PBG level at 1.6 mg/kg, po co-administered with maltose and measured after 60 mins by glucometer relative to control; assay type: functional; design: scale not given: the % may be the effect or the level left; conditions: 1 h
[37] = system: Mus musculus; assay: Hypoglycemic activity in C57BL/6J mouse assessed as decrease in PBG level at 0.8 mg/kg, po co-administered with maltose and measured after 30 mins by glucometer relative to control; assay type: functional; design: scale not given: the % may be the effect or the level left; conditions: 0.5 h
[38] = system: Mus musculus; assay: Hypoglycemic activity in KKAy diabetic mouse model assessed as decrease in PBG level at 1.6 mg/kg, po co-administered with maltose and measured after 15 mins by glucometer relative to control; assay type: functional; design: scale not given: the % may be the effect or the level left; conditions: 0.25 h
[39] = system: Mus musculus; assay: Hypoglycemic activity in KKAy diabetic mouse model assessed as molar decrease in PBG level at 1.6 mg/kg, po co-administered with maltose and measured after 30 mins by glucometer relative to control; assay type: functional; design: scale not given: the % may be the effect or the level left; conditions: 0.5 h
[40] = system: Mus musculus; assay: Hypoglycemic activity in C57BL/6J mouse assessed as blood glucose level at 0.4 mg/kg, po co-administered with maltose and measured after 15 mins by glucometer (380.8 +/- 20.6 mg/dl); assay type: functional; conditions: 0.25 h

In the case of `OC[C@H]1NC[C@H](O)[C@@H](O)[C@@H]1O` [DUVOGLUSTAT], the Activity [1] is reported as 354 mg/dL, the Activity [2] is reported as “inactive” and the Activity [3] is reported as 3.1%. For the same compound, the Ki [4] was 39 nM, the Activity [5] was 21.8% and the Activity [6] was 476.4 mg/dL. It also gave a Ki [7] of 17 nM, an Activity [8] of 296.4 mg/dL and a Ki [9] of 3600 nM. The inhibition [10] was “inactive” and the Activity [11] was 489 mg/dL.
With `CCCCCCCCCCCCCCCCCCNC(=O)CN(Cc1cn(CCCN2C[C@H](O)[C@@H](O)[C@H](O)[C@H]2CO)nn1)C(=O)CN(Cc1cn(CCCN2C[C@H](O)[C@@H](O)[C@H](O)[C@H]2CO)nn1)C(=O)CN(Cc1cn(CCCN2C[C@H](O)[C@@H](O)[C@H](O)[C@H]2CO)nn1)C(=O)CN(Cc1cn(CCCN2C[C@H](O)[C@@H](O)[C@H](O)[C@H]2CO)nn1)C(C)=O` the Ki [4] was 15400 nM, the Activity [12] was 252 nm and the Ki [7] was 440 nM. The Activity [13] was ~ 250 nm, the Activity [14] was 79 nm and the Activity [15] was 211 nm. The Ki [9] was 37400 nM and the inhibition [10] was “inactive”.
With `OCCN1C[C@H](O)[C@@H](O)[C@H](O)[C@H]1CO` [MIGLITOL] the Activity [16] was 8.6%, the Activity [17] was 298.8 mg/dL and the Activity [18] was 2.8%. It also gave an Activity [19] of 532.2 mg/dL, an Activity [20] of 349.5 mg/dL and an Activity [21] of 19.6%. The Activity [22] was 8.2%, the Activity [23] was 9.4% and the Activity [24] was 2.8%. It also gave a Ki [4] of 1460 nM, an Activity [25] of 331.9 mg/dL and an Activity [26] of 4.2%. The Activity [27] was 10.7%, the Activity [28] was 397.2 mg/dL and the Activity [29] was 297.4 mg/dL. For the same compound, the Ki [7] was 180 nM, the Activity [30] was 21.9% and the Activity [31] was 4.3%. It also gave an Activity [32] of 512.4 mg/dL, an Activity [33] of 535.8 mg/dL and an Activity [34] of 6.2%. The Activity [35] was 318.2 mg/dL, the Activity [36] was 7.7% and the Activity [37] was 16.5%. For the same compound, the Activity [38] was 3.2%, the Ki [9] was 20600 nM and the inhibition [10] was “inactive”. It also gave an Activity [39] of 1.1% and an Activity [40] of 348.8 mg/dL.
